Experimental data as given in publication PMC6753678, “Fueling Open Innovation for Malaria Transmission-Blocking Drugs: Hundreds of Molecules Targeting Early Parasite Mosquito Stages” (Frontiers in Microbiology, 2019).

What was measured:
[1] = tested on: P. falciparum female gametocytes; set-up: method as in Miguel-Blanco et al 2017; conditions: TCAMS library screen; ref Miguel-Blanco et al 2017; read-out: Pf FGAA IC50; cited from earlier work
[2] = tested on: P. falciparum female gametocytes; assay: P. falciparum female gametogenesis assay (Pf FGAA); conditions: 1: YES; 0: NO
[3] = tested on: HepG2 cells; conditions: HepG2 value reported with Pf FGAA screen; ref Miguel-Blanco et al 2017; cited from earlier work

Compound	IC50 [1]	Is compound selective in assay? Pf FGAA active? [2]	HepG2 cytoxicity (Pf FGAA screen) [3]
FC(F)(F)c1cnc(Sc2nnc(-c3ccncc3)o2)c(Cl)c1 [TCMDC-123767]	0.16 µM	1 (1: YES)	>100 µM
OC1CCN(c2cc(-c3ccccn3)nc(-c3ccccn3)n2)CC1 [TCMDC-123786]	1.54 µM	0 (0: NO)	14.14 µM
COc1ccc(-c2csc3ncnc(Cl)c23)cc1 [TCMDC-123805]	1.46 µM	0 (0: NO)	0.55 µM
Clc1ccc(-c2csc3ncnc(Cl)c23)cc1 [TCMDC-123811]	1.57 µM	1 (1: YES)	94.46 µM
O=C(Nc1nc(-c2ccccn2)cs1)c1ccc(Br)s1 [TCMDC-123868]	1.16 µM	1 (1: YES)	37.44 µM
CCCC(=O)NC(c1ccc(C(C)C)cc1)c1ccc2cccnc2c1O (stereo not drawn) [TCMDC-123884]	1.54 µM	1 (1: YES)	>100 µM
CCOc1ccc(-n2nc3c(Cl)nnc(-c4ccccc4)c3c2-c2ccccc2)cc1 [TCMDC-123899]	0.94 µM	1 (1: YES)	>100 µM
OCCN1CCN(c2ccc(Nc3ccnc4cc5ccccc5cc34)cc2)CC1 [TCMDC-123915]	3.34 µM	0 (0: NO)	5.43 µM
CCc1cc2c(Sc3nnc(N)s3)ncnc2s1 [TCMDC-123993]	0.73 µM	1 (1: YES)	32.30 µM
Cc1cc(I)ccc1Nc1nc2nonc2nc1Nc1ccc(I)cc1C [TCMDC-124083]	1.08 µM	0 (0: NO)	0.93 µM
FC(F)(F)c1cccc(Nc2nc3ccccc3nc2Nc2cccc(C(F)(F)F)c2)c1 [TCMDC-124162]	2.4 µM	0 (0: NO)	17.68 µM
CC(C)C1=CC(=NOS(=O)(=O)c2ccccc2)C=C(C(C)C)C1=O [TCMDC-124172]	0.88 µM	1 (1: YES)	21.70 µM
CCN1CCN(c2ccc(Nc3c4ccccc4nc4ccccc34)cc2)CC1 [TCMDC-124255]	1 µM	0 (0: NO)	4.57 µM
Cc1ccc(Cl)c2sc(N3CCN(C(=O)c4ccc([N+](=O)[O-])o4)CC3)nc12 [TCMDC-124311]	1.44 µM	1 (1: YES)	25.79 µM
Cc1ccc(C)c2sc(N3CCN(C(=O)c4ccc([N+](=O)[O-])o4)CC3)nc12 [TCMDC-124315]	1.12 µM	1 (1: YES)	37.65 µM
O=C(c1ccc([N+](=O)[O-])o1)N1CCN(c2nc3c(Cl)cccc3s2)CC1 [TCMDC-124316]	1.1 µM	1 (1: YES)	41.96 µM
CC(C)(C)Nc1cc(C2CC2)nc(-c2ccccn2)n1 [TCMDC-124453]	0.1 µM	1 (1: YES)	>100 µM
O=C(Nc1ccc([N+](=O)[O-])cc1)Nc1cc(OCC(F)(F)F)cc(OCC(F)(F)F)c1 [TCMDC-124533]	1.16 µM	0 (0: NO)	6.24 µM
CC1Cc2ccccc2N1S(=O)(=O)c1cccc(C(=O)Nc2nc(-c3ccccn3)cs2)c1 (stereo not drawn) [TCMDC-124559]	0.34 µM	1 (1: YES)	50.12 µM
c1ccn2c(Sc3ncnc4sccc34)ncc2c1 [TCMDC-124602]	0.24 µM	1 (1: YES)	>100 µM
Cl.Clc1cc(Br)ccc1-c1ccc(CNCC2CCNCC2)o1 [TCMDC-124617]	0.72 µM	0 (0: NO)	4.37 µM
CN1CCC(N2CCC(Oc3cccc(C(=O)NCCCC4CCCC4)c3)CC2)CC1 [TCMDC-124677]	1.47 µM	0 (0: NO)	4.90 µM
Cc1ccc2c(c1)c(C1CCN(C(=O)c3ccc([N+](=O)[O-])o3)CC1)cn2C [TCMDC-124787]	2.12 µM	1 (1: YES)	28.85 µM
Cc1sc2nc(CN3CCCC3)nc(-n3c(NCCO)nc4ccccc43)c2c1C [TCMDC-124811]	7.05 µM	0 (0: NO)	25.73 µM
C=CCc1cccc(CN2CCC(c3cc(=O)[nH]c(-c4ccccn4)n3)CC2)c1O [TCMDC-124851]	1.74 µM	0 (0: NO)	11.49 µM
CCCc1cc(=O)[nH]c(-n2nc(C)cc2NC(=O)CC(c2ccccc2)c2ccccc2)n1 [TCMDC-124940]	1.3 µM	1 (1: YES)	>100 µM
COc1ccc(NC(=O)Nc2ccc(Nc3nc(C)cc(N4CCCC4)n3)cc2)cc1 [TCMDC-124958]	1.08 µM	1 (1: YES)	11.89 µM
O=C(c1ccc([N+](=O)[O-])o1)N1CCN(c2nc3c(F)cc(F)cc3s2)CC1 [TCMDC-125149]	1.31 µM	1 (1: YES)	>100 µM
CNCCCNCc1ccc(-c2ccc(F)c(Cl)c2)o1.Cl [TCMDC-125237]	1.87 µM	0 (0: NO)	10.60 µM
COc1cc(OC)cc(C(=O)Nc2nc(-c3ccccn3)cs2)c1 [TCMDC-125345]	0.36 µM	1 (1: YES)	39.82 µM
